# Data as given in patent publication US5021551A, “Method of enhancing peptide immunogenicity” (Washington University, priority 1989, dated 1991).
# “Also recorded” adds a separate entry of the source. Peptide text beside a SMILES is read from it.
# Key:
# Assay type in all cases: cell-based
# [1] = tested on: A6.A2 T cell hybridoma (HEL (34-45) specific); assay: T cell stimulation assay, A6.A2 hybridoma, fixed TA3 antigen-presenting cells; details: FIG. 2
# Protocol: (§1) FIG. 2a and 2b are graphical representation which show the stimulation of two T cell hybridomas, A6.A2 ([…]) and 18N.30 ([…]), that react with a modified T cell immunogenic peptide 34-45NH.sbsb.2 ( ) in another embodiment of the invention compared to normal peptide HEL (34-45) ( ). The assay was performed as described hereinafter in Materials and Methods of the Examples except fixed TA3 cells were used as the source of antigen-presenting cell.
# (§2) The level of T cell stimulation was determined as previously described in detail by Allen and Unanue, J. Immunol. 132, 1077 (1984). In general, the level of T cell stimulation was determined by quantitating the amount of IL-2 produced by the T cell hybridomas. IL-2 was bioassayed by determining the level of ^3 H-Thymidine incorporation of the IL-2 dependent cell line, CTLL, 24 hours after culture in the test culture media. The source of antigen presenting cells were either peptone elicited peritoneal macrophages from CBA/J mice previously infected with Listeria monocytogenes or the B cell hybridoma, TA3 [Allen and Unanue, Id.; Allen et al, Proc. Natl. Acad. Sci. USA 81, 2489 (1984)]. […]
# (§3) It was also determined whether the changes that enhanced the immunogenicity of HEL (52-61) could be extrapolated to another peptide of HEL which had been previously studied, namely the peptide comprising residues 34-45 [Allen et al, Immun. […]
# [2] = tested on: 18N.30 T cell hybridoma (HEL (34-45) specific); assay: T cell stimulation assay, 18N.30 hybridoma, fixed TA3 antigen-presenting cells; details: FIG. 2
# Protocol: as §1, §2, §3
# [3] = tested on: 3A9 T cell hybridoma (HEL(52-61) specific); assay: T cell stimulation assay (IL-2 release, CTLL bioassay), 3A9 hybridoma
# Protocol: (§4) The level of T cell stimulation was determined as previously described in detail by Allen and Unanue, J. Immunol. 132, 1077 (1984). In general, the level of T cell stimulation was determined by quantitating the amount of IL-2 produced by the T cell hybridomas. IL-2 was bioassayed by determining the level of ^3 H-Thymidine incorporation of the IL-2 dependent cell line, CTLL, 24 hours after culture in the test culture media. The source of antigen presenting cells were either peptone elicited peritoneal macrophages from CBA/J mice previously infected with Listeria monocytogenes or the B cell hybridoma, TA3 [Allen and Unanue, Id.; Allen et al, Proc. Natl. Acad. Sci. USA 81, 2489 (1984)]. Both sources of antigen presenting cells were fixed with paraformaldehyde prior to exposure to antigen.
# (§5) The relative stimulatory capacity of derivatives of HEL (52-61) are shown. The relative stimulatory capacity of a peptide was determined by the relative shift in the concentration of antigen required for a 50% maximal response. For example, 300 fold less ^- 52-61^+. was required for a 50% maximal response than 52-61 with 3A9 T cells. The stimulation of 3A9 and 2All, two HEL (46-61) specific T cells, was determined as described in Materials and Methods. This test was performed three times, with identical results. A representative test is shown.
# [4] = tested on: 2A11 T cell hybridoma (HEL(52-61) specific); assay: T cell stimulation assay (IL-2 release, CTLL bioassay), 2A11 hybridoma; details: relative shift in antigen concentration required for 50% maximal response; 52-61 = 1
# Protocol: as §4, §5
structure (smiles),measurement,setting,value
C[C@H](NC(=O)[C@H](CCC(N)=O)NC(=O)[C@@H](NC(=O)[C@H](CC(N)=O)NC(=O)[C@H](Cc1ccccc1)NC(=O)[C@H](CC(N)=O)NC(=O)[C@H](CO)NC(=O)[C@H](CCC(=O)O)NC(=O)[C@@H](N)Cc1ccccc1)[C@@H](C)O)C(=O)N[C@H](C(=O)N[C@@H](CC(N)=O)C(=O)N[C@@H](CCCNC(=N)N)C(N)=O)[C@@H](C)O [HEL (34-45) with a C terminal amide] (H-FESNFNTQATNR-NH2),increase in response of A6.A2 compared to unmodified HEL (34-45),[1],50 fold
same,increase in response of 18N.30 compared to unmodified HEL (34-45),[2],250 fold
CC[C@H](C)[C@H](NC(=O)CNC(=O)[C@H](Cc1ccc(O)cc1)NC(=O)[C@H](CC(=O)O)NC(=O)[C@@H](N)CCCCN)C(=O)N[C@@H](CC(C)C)C(=O)N[C@@H](CCC(N)=O)C(=O)N[C@H](C(=O)N[C@@H](CC(N)=O)C(=O)N[C@@H](CO)C(=O)N[C@@H](CCCNC(=N)N)C(=O)N[C@@H](CCC(=O)O)C(=O)O)[C@@H](C)CC [^+- 52-61^-+] (H-KDYGILQINSRE-OH),"stimulatory ability, 3A9 T cell (in words)",[3]; qualitative comparison,drastically reduced; also recorded: less active than HEL (52-61)
same,"Relative Stimulatory Capacity, T Cell 3A9","[3]; relative shift in antigen concentration required for 50% maximal response, 52-61 = 1",0.3
same,"Relative Stimulatory Capacity, T Cell 2A11",[4],10
